{"source": "paper PMC8143291", "about": "“Cytotoxicity and Microbicidal Activity of Commonly Used Organic Solvents: A Comparative Study and Application to a Standardized Extract from Vaccinium macrocarpon” (Toxics, 2021)", "key": {"Bacillus subtilis": {"system": "Bacillus subtilis", "conditions": "cited from earlier work"}, "[1]": {"system": "breast cancer, mouse macrophage and human umbilical vein endothelial cells", "design": "method as in doi:10.17795/ajmb-33453", "conditions": "cited from earlier work"}, "[2]": {"system": "CCL-1 (transformed mouse fibroblasts, NCTC clone 929)", "assay": "MTT dye-reduction cytotoxicity assay (ISO 10993-5)", "format": "cell-based", "conditions": "solvent alone, 72 h, at least 70% of cells viable, n = 3", "from_the_text": "(§1) The cell lines utilized in this study included the human tumor lines A-375 (malignant melanoma) and A-431 (non-melanoma epidermoid squamous skin carcinoma) as well as the models for non-tumorigenic cells—HaCaT (immortalized human keratinocytes) and CCL-1^TM (transformed mouse fibroblasts, NCTC clone 929). The first three cell lines were obtained from CLS Cell Lines Service (GmbH, Eppelheim, Germany). CCL-1^TM was purchased from the American Type Culture Collection (ATCC, Manassas, VA, USA). Cells were maintained in a controlled environment—sterile cell culture flasks in a CO2 incubator Panasonic MCO-18AC (Panasonic Healthcare co., ltd, Oizumi-Machi, Japan) at 37 °C and a humidified atmosphere containing 5% CO2. CCL-1 was cultured in MEM with 10% heat-inactivated horse serum and 2 mM L-glutamine, and the cell culture medium for the rest of the cell lines was DMEM-HG with 4.5 g/L glucose with the addition of 10% heat-inactivated fetal bovine serum and 4 mM L-glutamine. Pen/strep (concentration of penicillin G sodium 10^5 Units/L and of streptomycin sulfate 100 mg/L) was added to both culture media. The cell lines were maintained as an adherent monolayer in a log phase. The cells were sub-cultivated about 1–3 times per week after the monolayer reached 80–90% confluence. The medium was removed from the flask, and the cell monolayer was washed with 3–5 mL PBS. The cells were incubated with 0.05% EDTA in PBS for 8–10 min, followed by the next step where all cell lines were subjected to enzyme cell detachment. HaCaT and CCL-1 monolayers were detached with 1 mL solution of trypsin/EDTA (0.1%/0.05% for HaCaT and 0.25% (w/v)/0.53 mM for CCL-1) and incubated for 2–5 min at 37 °C (for HaCaT) or at room temperature (for CCL-1 cells), whereas Accutase® was used for A-375 and A-431 lines. The incubation lasted until the separation and dispersion of the cells in the monolayer were observed using light microscopy. In the end, all cell lines were resuspended in 10 mL medium and centrifuged for 3 min at 300× g. The cell pellet was resuspended in fresh medium and sub-cultivated at a seeding density of 1.0 × 10^4 cells/cm^2.\n(§2) The MTT test was performed in order to determine the median inhibitory (IC50) and MTC concentrations of the solvents and PAC according to Annex C, ISO 10993-5 [2, 21]. Briefly, 100 µL of the cell suspension (1 × 10^5 cells/mL) were seeded per well in 96-well plates with a flat bottom. The cells were incubated for 24 h, allowing them to enter the log phase of their growth. On the 24th hour, the cells were treated with the solvents or CystiCran® solutions in concentrations ranging between 0.004% and 2% volume fraction (v/v) and incubated further for 72 h. The incubation periods are following the recommendations of the FDA guide for the use of ISO 10993-1 [1]. At the end of the incubation period, 10 µL of an MTT solution (5 mg/mL) were added to each well, and the plates were kept at 37 °C for 2 hours. Thereafter, the medium was aspirated, and the formed formazan crystals were dissolved in 100 μL/well of 2-propanol supplemented with 5% formic acid. The same solvent was used as a blank. Untreated cells were considered as a negative control. […] The absorption was measured at 540 nm (reference filter at 690 nm) on a microplate reader ELx800 (BioTek Instruments, Inc., Winooski, VT, Winooski, VT, USA).\n(§3) The IC50 values from the MTT assay were evaluated with a non-linear regression analysis (Curve fit, GraphPad Prizm 6.01 software, GraphPad Software Inc., San Diego, CA, USA) using sigmoidal concentration–response curves. The cell viability is presented as a percentage of the untreated control. At least four wells were seeded for every concentration. Three independent assays were performed (n = 3)."}, "[3]": {"system": "HaCaT (immortalized human keratinocytes)", "assay": "MTT dye-reduction cytotoxicity assay (ISO 10993-5)", "format": "cell-based", "conditions": "solvent alone, 72 h, at least 70% of cells viable, n = 3", "from_the_text": "as §1, §2, §3"}}, "data": [{"compound": "CN(C)C=O", "note": "[DMF, N,N-dimethylformamide]", "values": [{"measurement": "tolerated concentration", "setting": "Bacillus subtilis", "value": "≥ 10", "unit": "% v/v"}, {"measurement": "maximum tolerated concentration (MTC) / applicable concentration", "setting": "[1]", "value": 0.1, "unit": "% v/v"}, {"measurement": "MTC (maximum tolerated concentration)", "setting": "[2]", "value": "0.03 % (v/v)"}, {"measurement": "MTC (maximum tolerated concentration)", "setting": "[3]", "value": "0.03 % (v/v)"}]}]}
